# Source: patent US20240424019A1, “SHP1 MODIFIED DENDRITIC CELLS AND EXTRACELLULAR VESICLES DERIVED THEREFROM AND ASSOCIATED METHODS” (BOARD OF REGENTS, THE UNIVERSITY OF TEXAS SYSTEM, priority 2021, published 2024)
# Assays:
# OT-1 T cells = experiment: OT-1 T cell proliferation with OVA-loaded BMDCs; assay type: cell-based, mouse; details: VitE-treated, OVA-loaded BMDCs vs vehicle, day 3
# Procedure: FIG. 2A: Percentage of human IFN-γ^+CD8^+ T cells in CD8^+ T cells in coculture with vehicle or VitE-treated autologous MoDCs (n=3). FIG. 2B: Representative flow cytometric analysis and quantification of antigen-specific OT-1 T cell proliferation stimulated with OVA-loaded mouse BMDCs that were treated with vehicle or VitE at day 3. FIG. 2C: Tumor growth curves of orthotopic EMT6 tumor-bearing mice treated with vehicle (Ctrl), Vitamin E (VitE), or VitE plus Cyt c (10 mg/kg. i.v, every other day starting on day 3) to deplete DCs (n=8/group). The statistical significance is defined by P-value: *P<0.05, **P<0.01, ***P<0.001. ****P<0.0001.
# FIG. 3A: Volcano plot of reverse phase protein array (RPPA) data of mouse BMDCs treated with VitE (50 μg/ml) compared to those treated with vehicle control with tumor conditioned media (TCM) for 48 hours (n=3 independent samples). […] The grey dashed line indicates P-value of 0.05. FIG. 3B: t-SNEs by CyTOF and quantification comparing the intensity of pY564-SHP1 in TADCs from the vehicle-or VitE-treated EMT6 tumors at day 15 post-implantation. FIG. 3C: Top, SHP1 knockdown in BMDCs was effective. […] Right, quantification of OT-1 T-cell numbers under the indicated condition. FIG. 3D: The binding of VitE to purified SHP1 is analyzed by microscale thermophoresis (MST) binding assay. […]
# pY564-SHP1 = experiment: Reverse phase protein array (RPPA) of BMDCs; assay type: cell-based, mouse; details: VitE 50 μg/ml, tumor conditioned media, 48 hours
# Procedure: FIG. 3A: Volcano plot of reverse phase protein array (RPPA) data of mouse BMDCs treated with VitE (50 μg/ml) compared to those treated with vehicle control with tumor conditioned media (TCM) for 48 hours (n=3 independent samples). […] The grey dashed line indicates P-value of 0.05. FIG. 3B: t-SNEs by CyTOF and quantification comparing the intensity of pY564-SHP1 in TADCs from the vehicle-or VitE-treated EMT6 tumors at day 15 post-implantation. FIG. 3C: Top, SHP1 knockdown in BMDCs was effective. Bottom, CFSE-dilution analysis of OT-1 T cells co-cultured with OVA protein-pulsed BMDCs (ratio 10:1) with knockdown of SHP1 by siPtpn6 versus siCtrl (n=3). Right, quantification of OT-1 T-cell numbers under the indicated condition. FIG. 3D: The binding of VitE to purified SHP1 is analyzed by microscale thermophoresis (MST) binding assay. […] FIG. 3E: Relative tyrosine phosphatase activity of SHP1 immunoprecipitated from LPS (100 ng/ml)-activated DC2.4 cells in the presence of indicated doses of VitE (mean of triplicates). FIG. 3F: SHP1 tyrosine phosphatase activity in LPS (100 ng/ml)-activated BMDCs (n=6) treated with vehicle-or VitE (50 μg/ml). Error bars, s.e.m. ns, no significant. *P<0.05, **P<0.01. ***P<0.001, ****P<0.0001.
# To explore the molecular mechanism of VitE on DCs function, we performed a reverse-phase protein array (RPPA) analysis on DCs. […]
structure (smiles),measurement,setting,value
"Cc1c(C)c2c(c(C)c1O)CC[C@@](C)(CCC[C@H](C)CCC[C@H](C)CCCC(C)C)O2 [VitE, D-α-Tocopherol]",antigen-specific OT-1 T cells in coculture,OT-1 T cells,increased the OVA-derived SIINFEKL antigen-specific OT-1 T cells in coculture
same,phosphorylation of SHP1 at Y564 in DCs,pY564-SHP1,decreased the phosphorylation at tyrosine 564 (Y564)
